Assay results published in patent US10464896B2, “Efflux-pump inhibitors and therapeutic uses thereof” (Basilea Pharmaceutica International AG, priority 2015, dated 2019).

These molecules were tested on E. coli ATCC25922 (assay: Antibacterial activity in combination with minocycline (growth inhibition)). Conditions: Escherichia coli, ATCC25922, compound at 25 μM; minocycline 0.25 μg/mL; OD625 23 h minus 1 h; read-out: residual growth of E. coli ATCC25922 (% of uninhibited control) with minocycline.
Assay type: cell-based
Outline: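 Test compound combined with fixed subinhibitory partner antibiotic: linezolid 128 μg/mL for either strain, minocycline 0.25 μg/mL (E. coli) or 8 μg/mL (P. aeruginosa), in caMHB shaken at 37 °C. Residual growth as % of inhibitor-free control, from OD625 at 23 h minus 1 h.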
In the case of CN1CC(OCCOc2cc(CNCC3CNC3)cc(OCc3ccc(Cl)cc3Br)c2)CC1C(=O)O (stereo not drawn) [Example 249], the activity at 25 µM is reported as ≤ 10%. Clc1ccc(/C=C/c2cc(CNCC3CNC3)cc(OCCN3CCOCC3)c2)c(Br)c1 [Example 243] was tested, and the activity at 25 µM was ≤ 10%. CC(C)COc1cc(CNCC2CCNC2)cc(OCc2ccc(C(F)(F)F)cc2Br)c1 (stereo not drawn) [Example 282] was tested, and the activity at 25 µM was ≤ 10%. For C=CCOc1cc(/C=C/c2ccc(Cl)cc2Br)cc(CNCCNCC2CNC2)c1 [Example 453], the activity at 25 µM was ≤ 10%. CC(C)(C)c1cc(CNCC2CNC2)cc(OCc2ccc(Cl)cc2Br)c1 [Example 225] was tested, and the activity at 25 µM was ≤ 10%. With Clc1ccc(COc2ccccc2CCCNCC2CNC2)c(Br)c1 [Example 113] the activity at 25 µM was ≤ 10%. For Clc1ccc(COc2ccccc2CNCC2CNC2)c(Br)c1 [Example 33], the activity at 25 µM was ≤ 10%. In the case of Clc1ccc(C=CCc2cccc(CNCC3CCNC3)c2)c(Br)c1 (stereo not drawn) [Example 169], the activity at 25 µM is reported as ≤ 10%. O=c1[nH]nc(CCOc2cc(/C=C/c3ccc(Cl)cc3Br)cc(CNCC3CCNC3)c2)o1 (stereo not drawn) [Example 429] was tested, and the activity at 25 µM was ≤ 10%. For C=CCOc1cc(CNCC2CCNCC2)cc(OCc2ccc(Cl)cc2Br)c1 [Example 109], the activity at 25 µM was ≤ 10%. For Clc1ccc(/C=C/c2cccc(CCNCC3CCNC3)c2)c(Br)c1 (stereo not drawn) [Example 164], the activity at 25 µM was ≤ 10%. For C=CCOc1cc(/C=C/c2ccc(Cl)cc2Br)cc(CNC(=O)CNCC2CNC2)c1 [Example 371], the activity at 25 µM was ≤ 10%. CC(C)COc1cc(CNCC2CCNC2)cc(OCc2ccc(F)cc2Br)c1 (stereo not drawn) [Example 268] was tested, and the activity at 25 µM was ≤ 10%. In the case of Fc1cc(Br)ccc1COc1ccc(CNCC2CCNC2)cc1 (stereo not drawn) [Example 55], the activity at 25 µM is reported as ≤ 10%. For C=CCOc1cc(/C=C/c2ccc(C(F)(F)F)cc2)cc(CNCC2CNC2)c1 [Example 275], the activity at 25 µM was ≤ 10%. In the case of Fc1cc(Br)ccc1COc1ccc(CNCC2CCNCC2)cc1 [Example 52], the activity at 25 µM is reported as ≤ 10%. For C[N+](C)(Cc1cc(/C=C/c2ccc(Cl)cc2Br)cc(OCCc2c[nH]cn2)c1)CC1CNC1 [Example 408], the activity at 25 µM was ≤ 10%. For Brc1ccc(/C=C/c2ccccc2)cc1OCCCNCC1CNC1 [Example 120], the activity at 25 µM was ≤ 10%. With C=CCOc1cc(CNCC2CCNC2)cc(OCc2ccc(Cl)cc2Br)c1 (stereo not drawn) [Example 108] the activity at 25 µM was ≤ 10%. In the case of C=CCOc1cc(CNCC2CNC2)cc(C(=O)Nc2nc(C(C)(C)C)cs2)c1 [Example 392], the activity at 25 µM is reported as ≤ 10%. For C[N+]1(C)CC(OCCOc2cc(CNCC3CNC3)cc(OCc3ccc(Cl)cc3Br)c2)CC1C(=O)O (stereo not drawn) [Example 248], the activity at 25 µM was ≤ 10%. C=CCOc1cc(/C=C/c2ccc(C#N)c(C(F)(F)F)c2)cc(CNCC2CCNC2)c1 (stereo not drawn) [Example 300] was tested, and the activity at 25 µM was ≤ 10%. In the case of Clc1ccc(/C=C/c2cc(OCCCCNCC3CNC3)cc(OCCc3ccncc3)c2)c(Br)c1 [Example 517], the activity at 25 µM is reported as ≤ 10%. O=C(NCCNCC1CNC1)c1cc(/C=C/c2ccc(Cl)cc2Br)cc(OCCc2ccncc2)c1 [Example 518] was tested, and the activity at 25 µM was ≤ 10%. With Clc1ccc(/C=C/c2ccc(OCCc3c[nH]cn3)c(CNCC3CCNC3)c2)c(Br)c1 (stereo not drawn) [Example 464] the activity at 25 µM was ≤ 10%. C=CCOc1cc(/C=C/c2cc(C#N)cc(C(F)(F)F)c2)cc(CNCC2CNC2)c1 [Example 309] was tested, and the activity at 25 µM was ≤ 10%. With C=CCOc1cc(/C=C/c2ccc(Cl)cc2Br)cc(CNCCNC(=O)C2CNC2)c1 [Example 450] the activity at 25 µM was ≤ 10%. For Clc1ccc(/C=C/c2ccc(CNCC3CNC3)cc2)c(Br)c1 [Example 142], the activity at 25 µM was ≤ 10%. With CC(C)Oc1cc(CNCC2CCNC2)cc(OCc2ccc(Cl)cc2Br)c1 (stereo not drawn) [Example 163] the activity at 25 µM was ≤ 10%. Clc1ccc(/C=C/c2cc(OCCc3ccncc3)ccc2OCCCNCC2CNC2)c(Br)c1 [Example 525] was tested, and the activity at 25 µM was ≤ 10%. Clc1cc(Cl)cc(COc2cccc(CNCC3CNC3)c2)c1 [Example 40] was tested, and the activity at 25 µM was ≤ 10%. For C=CCOc1cc(CNCC2CCNC2)cc(C(=O)Nc2ccc(Cl)cc2Br)c1 (stereo not drawn) [Example 373], the activity at 25 µM was ≤ 10%. In the case of N[C@@H]1CN[C@@H](CNCc2cccc(/C=C/c3ccc(Cl)cc3Br)c2)C1 [Example 171], the activity at 25 µM is reported as ≤ 10%. With CCOC(=O)/C=C/c1cc(CNCC2CNC2)cc(OCc2ccc(Cl)cc2Br)c1 [Example 129, Ethyl (E)-3-[3-[(azetidin-3-ylmethylamino)methyl]-5-[(2-bromo-4-chloro-phenyl)methoxy]phenyl]prop-2-enoate] the activity at 25 µM was ≤ 10%. For FC(F)(F)c1cc(Br)ccc1COc1cccc(CNCC2CNC2)c1 [Example 47], the activity at 25 µM was ≤ 10%. For NCC1CCC(CNCc2cccc(/C=C/c3ccc(Cl)cc3Br)c2)N1 (stereo not drawn) [Example 191], the activity at 25 µM was ≤ 10%. CC(C)(C)c1ccc(COc2ccc(CNCC3CNC3)cc2)cc1 [Example 231] was tested, and the activity at 25 µM was ≤ 10%. For Clc1ccc(/C=C/c2cc(Cl)ccc2OCCCNCC2CNC2)c(Br)c1 [Example 199], the activity at 25 µM was ≤ 10%. In the case of N#Cc1ccc(/C=C/c2cccc(CNCC3CNC3)c2)c(C(F)(F)F)c1 [Example 312], the activity at 25 µM is reported as ≤ 10%. In the case of CC(C)(C)c1ccc(COc2cc(Cl)cc(CNCC3CCNC3)c2)cc1 (stereo not drawn) [Example 227], the activity at 25 µM is reported as ≤ 10%. With Clc1ccc(COc2cc(CNCC3CNC3)cc(OCCN3CCOCC3)c2)c(Br)c1 [Example 239] the activity at 25 µM was ≤ 10%. For Fc1cc(Br)ccc1COc1ccc(CNC2CCNCC2)cc1 [Example 60], the activity at 25 µM was ≤ 10%. For Clc1ccc(CSc2cccc(CNCC3CCNC3)c2)c(Br)c1 (stereo not drawn) [Example 136, 1-[3-[(2-bromo-4-chloro-phenyl)methylsulfanyl]phenyl]-N-(pyrrolidin-3-ylmethyl)methanamine], the activity at 25 µM was ≤ 10%. For Clc1ccc(/C=C/c2cc(CNCC3CCNC3)cc(OCc3ccccc3)c2)c(Br)c1 (stereo not drawn) [Example 181], the activity at 25 µM was ≤ 10%. With Clc1ccc(/C=C/c2ccccc2OCCCNCC2CCNC2)c(Br)c1 (stereo not drawn) [Example 203] the activity at 25 µM was ≤ 10%. For CC(C)COc1cc(CNCC2CNC2)cc(OCc2ccc(C(C)(C)C)cc2)c1 [Example 274], the activity at 25 µM was ≤ 10%. In the case of C=CCOc1cc(/C=C/c2ccc(Cl)cc2Br)cc(CN(CC2CNC2)CC2CNC2)c1 [Example 448], the activity at 25 µM is reported as ≤ 10%. C=CCOc1cc(CNCC2CNC2)cc(OCc2ccc(C(C)(C)C)cc2)c1 [Example 296] was tested, and the activity at 25 µM was ≤ 10%. In the case of C=CCOc1cc(/C=C/c2ccc(Cl)cc2Br)cc(CNC(=O)C2CCNCC2)c1 [Example 354, N-[[3-allyloxy-5-[(E)-2-(2-bromo-4-chloro-phenyl)vinyl]phenyl]methyl]piperidine-4-carboxamide], the activity at 25 µM is reported as ≤ 10%. CC(C)(c1ccccc1)c1ccc(CNCC2CCNC2)cc1 (stereo not drawn) [Example 44] was tested, and the activity at 25 µM was ≤ 10%. C=CCOc1cc(/C=C/c2ncccc2C#N)cc(CNCC2CCNC2)c1 (stereo not drawn) [Example 315] was tested, and the activity at 25 µM was ≤ 10%. C=CCOc1cc(/C=C/c2ccncc2C#N)cc(CNCC2CCNC2)c1 (stereo not drawn) [Example 306] was tested, and the activity at 25 µM was ≤ 10%. Cc1noc(C)c1CCOc1cc(/C=C/c2ccc(Cl)cc2Br)cc(CNCC2CCNC2)c1 (stereo not drawn) [Example 430] was tested, and the activity at 25 µM was ≤ 10%.

Same assay, conditions: Escherichia coli, ATCC25922, compound at 50 μM; minocycline 0.25 μg/mL; OD625 23 h minus 1 h; read-out: residual growth of E. coli ATCC25922 (% of uninhibited control) with minocycline
In the case of C=CCOc1cc(CNCC2CNC2)cc(OCCc2cccnc2)c1 [Example 414], the activity at 50 µM is reported as ≤ 50%. In the case of C(=C\c1cc(CNCC2CNC2)cc(OCCc2ccncc2)c1)/c1cccnc1 [Example 438], the activity at 50 µM is reported as ≤ 50%. Clc1ccc(COc2cccc(CNCC3CNC3)c2)cc1 [Example 13] was tested, and the activity at 50 µM was ≤ 50%. For Clc1ccccc1COc1ccccc1CNCC1CCNCC1 [Example 8], the activity at 50 µM was ≤ 50%.
